Measured values published in patent publication US20240182445A1 (ONO PHARMACEUTICAL CO., LTD., priority 2019, published 2024).

target: T1, human TREK-1 (Homo sapiens, UniProt O95069); test: TREK-1 Thallium (Tl+) flux assay, Method 1; format: cell-based; details: TREK-1 Thallium (Tl+) flux assay, Method 1
T1 construct: expressed in transfected cells
T1 sequence (O95069 1-426): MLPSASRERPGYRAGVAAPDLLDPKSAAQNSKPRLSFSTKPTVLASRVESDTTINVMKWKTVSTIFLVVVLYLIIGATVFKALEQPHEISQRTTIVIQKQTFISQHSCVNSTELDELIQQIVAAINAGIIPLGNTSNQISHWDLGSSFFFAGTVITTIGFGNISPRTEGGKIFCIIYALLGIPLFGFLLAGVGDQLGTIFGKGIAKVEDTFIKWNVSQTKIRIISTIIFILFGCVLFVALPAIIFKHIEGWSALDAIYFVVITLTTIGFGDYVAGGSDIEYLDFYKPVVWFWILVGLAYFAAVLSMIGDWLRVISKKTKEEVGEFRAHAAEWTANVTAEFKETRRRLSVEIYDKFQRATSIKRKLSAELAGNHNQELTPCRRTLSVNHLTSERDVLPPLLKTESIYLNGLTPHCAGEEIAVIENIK
Procedure, shortened: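 CHO-K1 cells stably expressing human TREK-1, loaded with Thallos dye, received compound or 0.3% DMSO vehicle for 10 min before thallium stimulus buffer. ΔRatio is fluorescence at 25 s after thallium addition over mean pre-addition fluorescence; % inhibition calculated from it.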

SMILES | IC50 [nM]
CCC(=O)N1CCC(n2ncc(Cl)c2C(=O)Nc2ccc(OCc3ccccc3)cc2C)CC1 [Compound 397, N-(4-(benzyloxy)-2-methylphenyl)-4-chloro-1-(1-propionylpiperidin-4-yl)-1H-pyrazole-5-carboxamide] | 1680
CC(=O)N1CCC(n2ncc(Cl)c2C(=O)Nc2ncc(OCc3ccccc3)cc2C)CC1 [Compound 393, 1-(1-acetylpiperidin-4-yl)-N-(5-(benzyloxy)-3-methylpyridin-2-yl)-4-chloro-1H-pyrazole-5-carboxamide] | 1270
Cc1cc(OCc2ccccc2)ccc1NC(=O)c1c(Cl)cnn1C1CC2(C1)CN(C(=O)C(C)C)C2 [Compound 398, N-(4-(benzyloxy)-2-methylphenyl)-4-chloro-1-(2-isobutyryl-2-azaspiro[3.3]heptan-6-yl)-1H-pyrazole-5-carboxamide] | 1740
CC(=O)N1CCOC(Cn2ncc(Cl)c2C(=O)Nc2ccc(OCc3ccccc3)cc2C)C1 (stereo not drawn) [Compound 423, 1-((4-acetylmorpholin-2-yl)methyl)-N-(4-(benzyloxy)-2-methylphenyl)-4-chloro-1H-pyrazole-5-carboxamide] | 4820

same assay, conditions: TREK-1 Thallium (Tl+) flux assay; no *^12 (Method 2) mark on these rows

IC50 [nM] | SMILES
740 | CC(=O)N1CC[C@@H](Cn2ncc(Cl)c2C(=O)Nc2ncc(C#Cc3ccc(F)cc3)cc2C)[C@H](F)C1 [Compound 341, 1-(((3S,4S)-1-acetyl-3-fluoropiperidin-4-yl)methyl)-4-chloro-N-(5-((4-fluorophenyl)ethynyl)-3-methylpyridin-2-yl)-1H-pyrazole-5-carboxamide]
1250 | Cc1cc(OCc2ccccc2)ccc1NC(=O)c1c(Cl)cnn1C1CCN(C(=O)C2COCCO2)CC1 (stereo not drawn) [Compound 391, 1-(1-(1,4-dioxane-2-carbonyl)piperidin-4-yl)-N-(4-(benzyloxy)-2-methylphenyl)-4-chloro-1H-pyrazole-5-carboxamide]
570 | Cc1cc(C#Cc2ccc(F)cc2)cnc1NC(=O)c1c(Cl)cnn1C1CCN(C(=O)C(C)C)C1 (stereo not drawn) [Compound 305, 4-chloro-N-(5-((4-fluorophenyl)ethynyl)-3-methylpyridin-2-yl)-1-(1-isobutyrylpyrrolidin-3-yl)-1H-pyrazole-5-carboxamide]
580 | Cc1cc(C#Cc2ccccc2)cnc1NC(=O)c1c(Cl)cnn1CCC1CCN(C(=O)OC(C)(C)C)CC1 [Compound 308, tert-butyl 4-(2-(4-chloro-5-((3-methyl-5-(phenylethynyl)pyridin-2-yl)carbamoyl)-1H-pyrazol-1-yl)ethyl)piperidine-1-carboxylate]

Continued, molecule first:

SMILES | IC50 [nM]
Cc1cc(C#Cc2ccc(F)cc2)cnc1NC(=O)c1c(Cl)cnn1CC1CCCN(C(=O)C(C)C)C1 (stereo not drawn) [Compound 272, 4-chloro-N-(5-((4-fluorophenyl)ethynyl)-3-methylpyridin-2-yl)-1-((1-isobutyrylpiperidin-3-yl)methyl)-1H-pyrazole-5-carboxamide] | 460
Cc1cc(C#Cc2ccccc2F)cnc1NC(=O)c1c(Cl)cnn1CCC1CCN(C(=O)C2CC2)CC1 [Compound 226, 4-chloro-1-(2-(1-(cyclopropanecarbonyl)piperidin-4-yl)ethyl)-N-(5-((2-fluorophenyl)ethynyl)-3-methylpyridin-2-yl)-1H-pyrazole-5-carboxamide] | 350
Cc1cc(C#Cc2ccccc2)cnc1NC(=O)c1c(Cl)cnn1CC1CCOC1 (stereo not drawn) [Compound 232, 4-chloro-N-(3-methyl-5-(phenylethynyl)pyridin-2-yl)-1-((tetrahydrofuran-3-yl)methyl)-1H-pyrazole-5-carboxamide] | 360
Cc1cc(C#Cc2ccccc2)cnc1NC(=O)c1c(Cl)cnn1CC1(C)CCN(C(=O)C2CC2)CC1 [Compound 295] | 530
O=C(Nc1ncc(C#Cc2cccs2)cc1F)c1c(Cl)cnn1CCC1CCN(C(=O)C2COCCO2)CC1 (stereo not drawn) [Compound 206, 1-(2-(1-(1,4-dioxane-2-carbonyl)piperidin-4-yl)ethyl)-4-chloro-N-(3-fluoro-5-(thiophen-2-ylethynyl)pyridin-2-yl)-1H-pyrazole-5-carboxamide] | 310
Cc1cc(C#Cc2ccccc2)cnc1NC(=O)c1c(Cl)cnn1-c1ccc2c(c1)OCO2 [Compound 283, 1-(benzol[d][1,3]dioxol-5-yl)-4-chloro-N-(3-methyl-5-(phenylethynyl)pyridin-2-yl)-1H-pyrazole-5-carboxamide] | 490
Cc1cc(C#Cc2ccccc2)cnc1NC(=O)c1c(Cl)cnn1C1CCN(C(=O)C(F)(F)F)CC1 [Compound 268, 4-chloro-N-[3-methyl-5-(2-phenylethynyl)-2-pyridyl]-2-[1-(2,2,2-trifluoroacetyl)-4-piperidyl]pyrazole-3-carboxamide] | 450
CC(=O)N1CCC[C@H](Cn2ncc(Cl)c2C(=O)Nc2ncc(C#Cc3ccccc3)cc2C)C1 [Compound 296, (S)-1-((1-acetylpiperidin-3-yl)methyl)-4-chloro-N-(3-methyl-5-(phenylethynyl)pyridin-2-yl)-1H-pyrazole-5-carboxamide] | 530
Cc1cc(C#Cc2ccc(F)cc2)cnc1NC(=O)c1c(Cl)cnn1[C@H]1C[C@H](NC(=O)C(C)C)C1 [Compound 209, 4-chloro-N-(5-((4-fluorophenyl)ethynyl)-3-methylpyridin-2-yl)-1-(trans-3-isobutyramidocyclobutyl)-1H-pyrazole-5-carboxamide] | 310
Cc1cc(C#Cc2ccccc2)cnc1NC(=O)c1c(Cl)cnn1[C@@H]1CC[C@@H](NC(=O)OC(C)(C)C)C1 [Compound 291, tert-butyl ((1R,3R)-3-(4-chloro-5-((3-methyl-5-(phenylethynyl)pyridin-2-yl)carbamoyl)-1H-pyrazol-1-yl)cyclopentyl)carbamate] | 520

same assay, conditions: TREK-1 Thallium (Tl+) flux assay; values without footnote *12 are Method 1

SMILES | IC50 [nM]
O=C(Nc1c(F)cc(C#Cc2ccccc2)cc1F)c1c(Cl)cnn1C[C@@H]1CCOC1 [Compound 161] | 260
CC(=O)N1CC[C@@H](Cn2ncc(Cl)c2C(=O)Nc2ncc(C#Cc3ccccc3)cc2C)[C@@H](F)C1 [Compound 109, 1-(((3R,4S)-1-acetyl-3-fluoropiperidin-4-yl)methyl)-4-chloro-N-(3-methyl-5-(phenylethynyl)pyridin-2-yl)-1H-pyrazole-5-carboxamide] | 190
CC(=O)N1CCC(C(C)n2ncc(Cl)c2C(=O)Nc2ncc(C#Cc3ccccc3)cc2C)CC1 (stereo not drawn) [Compound 32, 1-(1-(1-acetylpiperidin-4-yl)ethyl)-4-chloro-N-(3-methyl-5-(phenylethynyl)pyridin-2-yl)-1H-pyrazole-5-carboxamide] | 100
CCNC(=O)N1CCC(n2ncc(Cl)c2C(=O)Nc2ncc(C#Cc3ccc(F)cc3)cc2C)CC1 [Compound 92, 4-(4-chloro-5-((5-((4-fluorophenyl)ethynyl)-3-methylpyridin-2-yl)carbamoyl)-1H-pyrazol-1-yl)-N-ethylpiperidine-1-carboxamide] | 180
CC(=O)N1CCC(n2ncc(Cl)c2C(=O)Nc2ncc(C#Cc3ccccc3)cc2F)C1 (stereo not drawn) [Compound 121, 1-(1-acetylpyrrolidin-3-yl)-4-chloro-N-(3-fluoro-5-(phenylethynyl)pyridin-2-yl)-1H-pyrazole-5-carboxamide] | 210
CC(=O)N1CCC(n2ncc(Cl)c2C(=O)Nc2ncc(C#Cc3cccc(F)c3)cc2F)CC1 [Compound 25, 1-(1-acetylpiperidin-4-yl)-4-chloro-N-(3-fluoro-5-((3-fluorophenyl)ethynyl)pyridin-2-yl)-1H-pyrazole-5-carboxamide] | 90
O=C(Nc1c(F)cc(C#Cc2ccccc2)cc1F)c1c(Cl)cnn1C[C@H]1CCOC1 [Compound 162, (R)-4-chloro-N-(2,6-difluoro-4-(phenylethynyl)phenyl)-1-((tetrahydrofuran-3-yl)methyl)-1H-pyrazole-5-carboxamide] | 260
O=C(Nc1ncc(C#Cc2ccc(F)cc2)cc1F)c1c(Cl)cnn1[C@H]1CC[C@@H](NC(=O)C2COCCO2)CC1 (stereo partly drawn) [Compound 23, 1-(cis-4-(1,4-dioxane-2-carboxamido)cyclohexyl)-4-chloro-N-(3-fluoro-5-((4-fluorophenyl)ethynyl)pyridin-2-yl)-1H-pyrazole-5-carboxamide] | 80
CC(=O)N[C@H]1C[C@@H](n2ncc(Cl)c2C(=O)Nc2ncc(C#Cc3ccccc3)cc2F)C1 [Compound 94, 1-(cis-3-acetamidocyclobutyl)-4-chloro-N-(3-fluoro-5-(phenylethynyl)pyridin-2-yl)-1H-pyrazole-5-carboxamide] | 180
CCC(=O)N1CCC(n2ncc(Cl)c2C(=O)Nc2ncc(C#Cc3ccccc3)cc2F)CC1 [Compound 34, 4-chloro-N-(3-fluoro-5-(phenylethynyl)pyridin-2-yl)-1-(1-propionylpiperidin-4-yl)-1H-pyrazole-5-carboxamide] | 110

same assay, conditions: read-out: Tl^+ Assay % inhibition at 30 uM (Minus value indicates activation of TREK-1); at 30 uM; CHO-K1 cells stably expressing human TREK-1; minus = activation

SMILES | inhibition at 30 µM [%]
Cc1cc(C#Cc2ccccc2)cnc1NC(=O)c1nn(C2CCOCC2)cc1Cl [Compound 443, 4-chloro-N-(3-methyl-5-(phenylethynyl)pyridin-2-yl)-1-(tetrahydro-2H-pyran-4-yl)-1H-pyrazole-3-carboxamide] | -116
CC(=O)N1CCC(CCn2cc(Cl)c(C(=O)Nc3ncc(C#Cc4ccccc4F)cc3C)n2)CC1 [Compound 445, 1-(2-(1-acetylpiperidin-4-yl)ethyl)-4-chloro-N-(5-((2-fluorophenyl)ethynyl)-3-methylpyridin-2-yl)-1H-pyrazole-3-carboxamide] | -115
